# Measured values published in patent US20250346597A1, “CONDENSED HETEROCYCLIC COMPOUNDS AS INHIBITOR OF DIACYLGLYCEROL KINASES” (BEONE MEDICINES I GMBH, priority 2023, published 2025).
# Experiments:
# DGKζ = DGKζ (Homo sapiens (Human), UniProt Q13574); experiment: Biochemical DGK IC50 assay (ADP-Glo, lipid micelle substrate), DGKζ; details: full length DGKζ 0.5 nM, ATP 140 μM, DAG 80 μM
# Experimental: (§1) Enzymatic reactions of DGKζ, DGKα and DGKδ were performed using ADP-Glo assay with lipid micelle substrate. […] Full length DGKα (D21-10BG, SignalChem) and full length DGKδ (D23-10G, SignalChem) were purchased. Lipid micelle was prepared by dissolving DAG (Sigma, 317505-10MG) and PS (Sigma, P7769-100MG) with chloroform which was furtherly removed by rotary evaporation. The resulted product was resuspended in buffer containing 25 mM HEPES pH 7.0, 0.5 mM EDTA and 160 mM Octyl P-D glucopyranoside by vigorous mixing and ultrasonic (IID, Scientz).
# (§2) The inhibition activities testing for the compound disclosed herein were carried out at room temperature in assay buffer containing 50 mM HEPES, 10 mM MgCl2, 0.01% BSA, 0.1 mM Na3VO4, 0.005% Tween-20 and 0.01 mM CaCl2. Compounds in DMSO were dispensed into wells of a black 384 well plate (Corning 4514) using D300e digital dispenser (Tecan). […] 3 μL 2× enzyme solution was added to wells. […] After 1 hour reaction, 5 μL ADP-Glo reagent (Promga V9101) was added and incubated for 40 minutes. 10 μL Kinase Detection reagent was added and incubated for 30 minutes. Luminescence was measured on a microplate reader (PHERAstar FSX, BMG labtech). The IC50s are calculated based on inhibition of enzyme activity in the presence of increasing concentrations of compounds.
# Human His-TEV-DGK-zeta-pFastBac1 and human baculovirus samples was generated using the Bac-to-Bac baculovirus expression system (Invitrogen) according to the manufacturer's protocol. The DNA used for expression of DGK-zeta, have SEQ ID Nos: 1. Baculovirus amplification was achieved using infected SF9 cells at 1:2000 virus/cells ratios, and grown for 96 hours at 27° C. post-transfected.
# The expression scaled up for each protein was carried out in the […] from CORNING. 4 L of 3×10^6 cells/mL Sf9 cells (Expression System, Invitrogen) grown in SF900™ II SFM insect medium (Expression System) was infected with virus stock at 1:200 virus/cells ratio, and grown for 48 hours at 27° C. post-transfection. The infected cell culture was harvested by centrifugation at 6000 rpm for 15 min 4° C. in a SORVALL LYNX6000 centrifuge. The cell pellets were stored at −80° C.
# Full length human DGKζ produced as described above, was purified from Sf9 baculovirus-infected insect cell paste. The cells were lysed using sonication method, and the lysates were clarified by centrifugation.
# DGKα = DGKα (Homo sapiens (Human), UniProt P23743); experiment: Biochemical DGK IC50 assay (ADP-Glo, lipid micelle substrate), DGKα; details: full length DGKα […], ATP 140 μM, DAG 80 μM; further: full length DGKα 7.5 nM
# Experimental: as §1, §2
# DGKζ, sequence (Q13574 other isoform, or with tags, fused parts or gaps): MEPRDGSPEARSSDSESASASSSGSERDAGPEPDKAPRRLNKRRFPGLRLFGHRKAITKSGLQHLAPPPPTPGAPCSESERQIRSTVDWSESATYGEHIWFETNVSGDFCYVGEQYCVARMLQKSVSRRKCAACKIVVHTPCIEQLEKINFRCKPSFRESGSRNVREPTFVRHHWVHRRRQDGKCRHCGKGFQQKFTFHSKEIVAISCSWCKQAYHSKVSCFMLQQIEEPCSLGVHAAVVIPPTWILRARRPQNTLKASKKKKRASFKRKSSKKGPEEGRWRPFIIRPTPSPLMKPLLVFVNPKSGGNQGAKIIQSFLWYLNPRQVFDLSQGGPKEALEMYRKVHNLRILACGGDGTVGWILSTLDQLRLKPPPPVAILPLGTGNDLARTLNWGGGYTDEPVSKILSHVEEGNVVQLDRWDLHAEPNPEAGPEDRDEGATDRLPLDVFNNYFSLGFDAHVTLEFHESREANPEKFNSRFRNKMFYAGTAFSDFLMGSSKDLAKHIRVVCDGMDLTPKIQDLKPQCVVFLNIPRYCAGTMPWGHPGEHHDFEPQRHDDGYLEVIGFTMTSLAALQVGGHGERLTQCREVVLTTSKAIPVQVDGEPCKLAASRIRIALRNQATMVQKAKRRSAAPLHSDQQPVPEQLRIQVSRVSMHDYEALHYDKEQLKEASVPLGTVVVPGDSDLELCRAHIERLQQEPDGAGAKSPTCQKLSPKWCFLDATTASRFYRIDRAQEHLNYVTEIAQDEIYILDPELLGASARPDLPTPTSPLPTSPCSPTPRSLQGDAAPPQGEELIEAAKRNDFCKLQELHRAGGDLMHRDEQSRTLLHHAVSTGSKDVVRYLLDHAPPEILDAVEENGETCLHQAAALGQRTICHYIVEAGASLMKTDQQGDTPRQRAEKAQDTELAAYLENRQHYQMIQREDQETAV
# DGKα, sequence (P23743 whole entry): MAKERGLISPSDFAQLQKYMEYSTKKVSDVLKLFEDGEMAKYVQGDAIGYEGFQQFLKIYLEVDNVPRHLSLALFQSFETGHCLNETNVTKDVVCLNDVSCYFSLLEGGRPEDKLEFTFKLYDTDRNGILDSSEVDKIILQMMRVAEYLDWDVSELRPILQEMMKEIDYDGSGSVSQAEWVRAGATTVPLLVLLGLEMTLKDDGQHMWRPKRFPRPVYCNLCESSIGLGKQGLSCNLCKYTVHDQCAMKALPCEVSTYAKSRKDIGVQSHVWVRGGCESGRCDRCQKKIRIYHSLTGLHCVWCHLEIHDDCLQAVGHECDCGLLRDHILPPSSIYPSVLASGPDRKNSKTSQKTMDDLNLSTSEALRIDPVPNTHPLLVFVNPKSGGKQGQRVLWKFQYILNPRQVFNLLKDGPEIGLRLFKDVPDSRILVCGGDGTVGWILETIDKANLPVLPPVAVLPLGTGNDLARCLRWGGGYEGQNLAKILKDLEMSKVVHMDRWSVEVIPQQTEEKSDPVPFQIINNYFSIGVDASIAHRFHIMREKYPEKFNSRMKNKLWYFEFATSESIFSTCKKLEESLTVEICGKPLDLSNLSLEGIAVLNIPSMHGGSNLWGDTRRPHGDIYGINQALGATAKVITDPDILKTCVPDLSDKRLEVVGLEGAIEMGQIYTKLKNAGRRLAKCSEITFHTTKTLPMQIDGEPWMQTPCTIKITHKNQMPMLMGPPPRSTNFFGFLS
smiles,measurement,setting,value
"CC[C@H]1CN(C(C)c2cc3scnc3cc2F)[C@H](CC)CN1c1cc(=O)n(C)c2cn(CC#N)nc12 (single isomer, unassigned) [Compound A103b]",IC50,DGKζ,0.629 µM
same,IC50,DGKα,1.35 µM
"CC[C@@H]1CN(c2cc(=O)n(C)c3cn(CC#N)nc23)[C@@H](C)CN1C(C)c1ccc2nc(C)sc2c1F (single isomer, unassigned) [Compound A104a]",IC50,DGKζ,0.0065 µM
same,IC50,DGKα,3.15 µM
"CC[C@@H]1CN(c2cc(=O)n(C)c3cn(CC#N)nc23)[C@@H](C)CN1C(C)c1ccc2nc(C)sc2c1F (single isomer, unassigned) [Compound A104b]",IC50,DGKζ,0.22 µM
same,IC50,DGKα,18.4 µM
"CC[C@H]1CN(C(C)c2ccc3nsnc3c2)[C@H](CC)CN1c1cc(=O)n(C)c2cn(CC#N)nc12 (single isomer, unassigned) [Compound A106a]",IC50,DGKζ,0.009 µM
same,IC50,DGKα,0.065 µM
"CC[C@H]1CN(C(C)c2ccc3nsnc3c2)[C@H](CC)CN1c1cc(=O)n(C)c2cn(CC#N)nc12 (single isomer, unassigned) [Compound A106b]",IC50,DGKζ,0.6 µM
same,IC50,DGKα,0.932 µM
"CC[C@H]1CN(C(C)c2ccc3scnc3c2F)[C@H](CC)CN1c1cc(=O)n(C)c2cn(CC#N)nc12 (single isomer, unassigned) [Compound A110a]",IC50,DGKζ,0.031 µM
same,IC50,DGKα,0.469 µM
"CC[C@H]1CN(C(C)c2ccc3scnc3c2F)[C@H](CC)CN1c1cc(=O)n(C)c2cn(CC#N)nc12 (single isomer, unassigned) [Compound A110b]",IC50,DGKζ,1.72 µM
same,IC50,DGKα,10.5 µM
"CC#CCn1cc2c(n1)c(N1C[C@@H](CC)N(C(C)c3nc4ccccc4nc3C)C[C@@H]1C)cc(=O)n2C (single isomer, unassigned) [Compound A111a]",IC50,DGKζ,> 10 µM
same,IC50,DGKα,2.54 µM
"CC#CCn1cc2c(n1)c(N1C[C@@H](CC)N(C(C)c3nc4ccccc4nc3C)C[C@@H]1C)cc(=O)n2C (single isomer, unassigned) [Compound A111b]",IC50,DGKζ,0.055 µM
same,IC50,DGKα,1.25 µM
"CC#CCn1cc2c(n1)c(N1C[C@@H](CC)N(C(C)c3ccc4ncsc4c3)C[C@@H]1C)cc(=O)n2C (single isomer, unassigned) [Compound A112a]",IC50,DGKζ,0.078 µM
same,IC50,DGKα,0.065 µM
"CC#CCn1cc2c(n1)c(N1C[C@@H](CC)N(C(C)c3ccc4ncsc4c3)C[C@@H]1C)cc(=O)n2C (single isomer, unassigned) [Compound A112b]",IC50,DGKζ,> 10 µM
same,IC50,DGKα,0.497 µM
"CC#CCn1cc2c(n1)c(N1C[C@@H](CC)N(C(C)c3ccc4nc(C)sc4c3)C[C@@H]1CC)cc(=O)n2C (single isomer, unassigned) [Compound A114a]",IC50,DGKζ,0.083 µM
same,IC50,DGKα,0.032 µM
"CC#CCn1cc2c(n1)c(N1C[C@@H](CC)N(C(C)c3ccc4nc(C)sc4c3)C[C@@H]1CC)cc(=O)n2C (single isomer, unassigned) [Compound A114b]",IC50,DGKζ,3.2 µM
same,IC50,DGKα,0.391 µM
"CC#CCn1cc2c(n1)c(N1C[C@@H](CC)N(C(C)c3ccc4nc(C)sc4c3)C[C@@H]1C)cc(=O)n2C (single isomer, unassigned) [Compound A115a]",IC50,DGKζ,0.431 µM
same,IC50,DGKα,0.269 µM
"CC#CCn1cc2c(n1)c(N1C[C@@H](CC)N(C(C)c3ccc4nc(C)sc4c3)C[C@@H]1C)cc(=O)n2C (single isomer, unassigned) [Compound A115b]",IC50,DGKζ,6.49 µM
same,IC50,DGKα,1.25 µM
"CC#CCn1cc2c(n1)c(N1C[C@@H](CC)N(C(C)c3ccc4nc(C)sc4c3F)C[C@@H]1C)cc(=O)n2C (single isomer, unassigned) [Compound A116a]",IC50,DGKζ,0.181 µM
same,IC50,DGKα,2.33 µM
"CC#CCn1cc2c(n1)c(N1C[C@@H](CC)N(C(C)c3ccc4nc(C)sc4c3F)C[C@@H]1C)cc(=O)n2C (single isomer, unassigned) [Compound A116b]",IC50,DGKζ,> 10 µM
same,IC50,DGKα,21 µM
"CC[C@H]1CN(C(C)c2ccc3ncsc3n2)[C@H](CC)CN1c1nc(=O)n(C)c2cn(CC#N)nc12 (single isomer, unassigned) [Compound A126a]",IC50,DGKζ,1.32 µM
same,IC50,DGKα,1.37 µM
"CC[C@H]1CN(C(C)c2ccc3ncsc3n2)[C@H](CC)CN1c1nc(=O)n(C)c2cn(CC#N)nc12 (single isomer, unassigned) [Compound A126b]",IC50,DGKζ,0.051 µM
same,IC50,DGKα,0.093 µM
"CC[C@H]1CN(C(C)c2ccc(C3CC3)nc2)[C@H](CC)CN1c1nc(=O)n(C)c2cn(CC#N)nc12 (single isomer, unassigned) [Compound A127a]",IC50,DGKζ,0.071 µM
same,IC50,DGKα,0.357 µM
"CC[C@H]1CN(C(C)c2ccc(C3CC3)nc2)[C@H](CC)CN1c1nc(=O)n(C)c2cn(CC#N)nc12 (single isomer, unassigned) [Compound A127b]",IC50,DGKζ,3.28 µM
same,IC50,DGKα,3.36 µM
"CC[C@H]1CN(C(C)c2cc3sc(C)nc3cc2F)[C@H](CC)CN1c1nc(=O)n(C)c2cn(CC#N)nc12 (single isomer, unassigned) [Compound A128a]",IC50,DGKζ,0.06 µM
same,IC50,DGKα,0.375 µM
"CC[C@H]1CN(C(C)c2cc3sc(C)nc3cc2F)[C@H](CC)CN1c1nc(=O)n(C)c2cn(CC#N)nc12 (single isomer, unassigned) [Compound A128b]",IC50,DGKζ,0.694 µM
same,IC50,DGKα,4.48 µM
"CC[C@H]1CN(C(C)c2ccc3nc(C)sc3n2)[C@H](CC)CN1c1nc(=O)n(C)c2cn(CC#N)nc12 (single isomer, unassigned) [Compound A129a]",IC50,DGKζ,0.626 µM
same,IC50,DGKα,2.1 µM
"CC[C@H]1CN(C(C)c2ccc3nc(C)sc3n2)[C@H](CC)CN1c1nc(=O)n(C)c2cn(CC#N)nc12 (single isomer, unassigned) [Compound A129b]",IC50,DGKζ,0.045 µM
same,IC50,DGKα,0.192 µM
"CC[C@H]1CN(C(C)c2ccc3nc(C)sc3n2)[C@H](CC)CN1c1cc(=O)n(C)c2cn(CC#N)nc12 (single isomer, unassigned) [Compound A133a]",IC50,DGKζ,1.52 µM
same,IC50,DGKα,3.28 µM
"CC[C@H]1CN(C(C)c2ccc3nc(C)sc3n2)[C@H](CC)CN1c1cc(=O)n(C)c2cn(CC#N)nc12 (single isomer, unassigned) [Compound A133b]",IC50,DGKζ,0.024 µM
same,IC50,DGKα,0.061 µM
"[2H]C([2H])([2H])n1c(=O)cc(N2C[C@@H](CC)N(C(C)c3ccc4nc(C)sc4n3)C[C@@H]2CC)c2nn(CC#N)cc21 (single isomer, unassigned) [Compound A134a]",IC50,DGKζ,3.92 µM
same,IC50,DGKα,3.39 µM
"[2H]C([2H])([2H])n1c(=O)cc(N2C[C@@H](CC)N(C(C)c3ccc4nc(C)sc4n3)C[C@@H]2CC)c2nn(CC#N)cc21 (single isomer, unassigned) [Compound A134b]",IC50,DGKζ,0.022 µM
same,IC50,DGKα,0.108 µM
"CCC(c1ccc(C(F)(F)F)cc1)N1C[C@H](CC)N(c2cc(=O)n(C)c3cn(CC#N)nc23)C[C@H]1CC (single isomer, unassigned) [Compound A135a]",IC50,DGKζ,0.096 µM
same,IC50,DGKα,0.086 µM
"CCC(c1ccc(C(F)(F)F)cc1)N1C[C@H](CC)N(c2cc(=O)n(C)c3cn(CC#N)nc23)C[C@H]1CC (single isomer, unassigned) [Compound A135b]",IC50,DGKζ,3.75 µM
same,IC50,DGKα,0.483 µM
"CC#CCn1cc2c(n1)c(N1C[C@@H](CC)N(C(C)c3ccc4nc(C)sc4c3F)C[C@@H]1CC)cc(=O)n2C (single isomer, unassigned) [Compound A138a]",IC50,DGKζ,0.143 µM
same,IC50,DGKα,0.311 µM
"CC#CCn1cc2c(n1)c(N1C[C@@H](CC)N(C(C)c3ccc4nc(C)sc4c3F)C[C@@H]1CC)cc(=O)n2C (single isomer, unassigned) [Compound A138b]",IC50,DGKζ,3.28 µM
same,IC50,DGKα,2.04 µM
"CC[C@H]1CN(C(C)c2ccc3nc(C)sc3n2)[C@H](CC)CN1c1c(C#N)c(=O)n(C)c2cn(CC#N)nc12 (single isomer, unassigned) [Compound A140a]",IC50,DGKζ,3.38 µM
same,IC50,DGKα,0.84 µM
"CC[C@H]1CN(C(C)c2ccc3nc(C)sc3n2)[C@H](CC)CN1c1c(C#N)c(=O)n(C)c2cn(CC#N)nc12 (single isomer, unassigned) [Compound A140b]",IC50,DGKζ,0.045 µM
same,IC50,DGKα,0.093 µM
"CC#CCn1cc2c(n1)c(N1C[C@@H](CC)N(C(C)c3ccc4sc(C)nc4c3F)C[C@@H]1CC)cc(=O)n2C (single isomer, unassigned) [Compound A141a]",IC50,DGKζ,0.0176 µM
same,IC50,DGKα,1.39 µM
"CC#CCn1cc2c(n1)c(N1C[C@@H](CC)N(C(C)c3ccc4sc(C)nc4c3F)C[C@@H]1CC)cc(=O)n2C (single isomer, unassigned) [Compound A141b]",IC50,DGKζ,0.641 µM
same,IC50,DGKα,6.19 µM
